Results as given in patent publication US20160355483A1, “COMPOUND BINDING TO PPARG BUT NOT ACTING AS PROMOTER AND PHARMACEUTICAL COMPOSITION FOR TREATING PPARG-RELATED DISEASES CONTAINING SAME AS ACTIVE INGREDIENT” (Hyundai Pharm Co., Ltd., priority 2014, published 2016).
Entries after “also recorded” stand apart in the source; their conditions may differ.

Experiments:
[1] = biological target: T1, PPARG (peroxisome proliferator activated receptor-gamma), GST-PPARG-LBD (Homo sapiens, UniProt P37231); assay: LanthaScreen TR-FRET PPARG Competitive Binding Assay; parameters: key: “+” indicates the degree of the binding activity, and as the number of “+” increases, the binding activity is stronger; ++: “+” indicates the degree of the binding activity, and as the number of “+” increases, the binding activity is stronger; +++: “+” indicates the degree of the binding activity, and as the number of “+” increases, the binding activity is stronger; ++++: “+” indicates the degree of the binding activity, and as the number of “+” increases, the binding activity is stronger; conditions: degree of binding activity
T1 construct: 15 μL of 5 nM GST-PPARG-LBD and 5 nM Tb-GST-antibody were added; purchased Invitrogen PV4894
T1 sequence (P37231 238-503 limits assumed): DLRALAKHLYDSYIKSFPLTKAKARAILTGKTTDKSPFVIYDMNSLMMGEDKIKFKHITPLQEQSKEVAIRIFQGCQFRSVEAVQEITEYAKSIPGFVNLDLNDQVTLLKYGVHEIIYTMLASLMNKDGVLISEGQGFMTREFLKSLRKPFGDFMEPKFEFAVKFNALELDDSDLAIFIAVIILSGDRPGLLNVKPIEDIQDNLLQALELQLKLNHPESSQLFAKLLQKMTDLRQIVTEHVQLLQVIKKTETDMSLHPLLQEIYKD
In short: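 Ratio of 518 nm to 488 nm time-resolved emission after a 1 h room-temperature incubation, in competition format with GST-PPARG ligand-binding domain. Values are expressed as 100% minus compound-to-vehicle ratio and related to rosiglitazone binding.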

CYP 2C19 = biological target: T2, CYP 2C19 (Homo sapiens, UniProt P33261); assay: CYP (cytochrome P450)-suppressing effect, BD GENTEST kit; format: in vitro ADME
T2 construct: purchased BD GENTEST 459400
Procedure: (§1) To evaluate the CYP (cytochrome P450)-suppressing activity of the compounds prepared in the examples of the invention, the following experiment was performed.
(§2) The analysis of CYP1A2, 2C19, and 3A4 suppressing activity was performed by using a BD GENTEST (459100, 459400, and 459500) kit, and the analysis of CYP 2C9- and 2D6-suppressing activity was performed by using an Invitrogen (P2861 and P2862) kit.
(§3) When the BD GENTEST kit was used, the compounds of the present invention were diluted in acetonitrile at the final concentration of 50×. The NADPH-Cofactor mix was prepared by diluting the Cofactor, G6PDH, and control protein provided by the kit in DW according to the instructed concentration. 4 μL of the compound of the example (50×) was mixed with 96 μL of NADPH-Cofactor mix in a 96-well plate, followed by pre-incubation in a 37° C. incubator for 10 minutes.
(§4) The enzyme/substrate mixture was diluted in the buffer (0.5 M potassium phosphate, pH 7.4) provided by the kit according to the instructed concentration. Each CYP450 enzyme substrate was diluted in DW at a desired concentration respectively according to the corresponding types of CYP450. 100 μL of the enzyme/substrate mixture was loaded in the plate when the pre-incubation had been completed, followed by reaction in a 37° C. incubator for 15 minutes (1A2) and 30 minutes (3A4 and 2C19). Upon completion of the reaction, the mixture was transferred to a white plate, and the fluorescent wavelength was measured with a microplate reader (1A2, 2C19 excitation 410 nm, emission 460 nm; 3A4, excitation 409 nm, emission 530 nm).
(§5) The test results were calculated by the following formula:
(§6) (1−(fluorescence value of the test material/fluorescence value of the vehicle))×100%.

CYP 3A4 = biological target: T3, CYP 3A4 (Homo sapiens, UniProt P08684); assay: as above; format: in vitro ADME
T3 construct: purchased BD GENTEST 459500
Procedure: as §1, §2, §3, §4, §5, §6

CYP1A2 = biological target: T4, CYP1A2 (Homo sapiens, UniProt P05177); assay: as above; format: in vitro ADME
T4 construct: purchased BD GENTEST 459100
T4 sequence (P05177 1-516): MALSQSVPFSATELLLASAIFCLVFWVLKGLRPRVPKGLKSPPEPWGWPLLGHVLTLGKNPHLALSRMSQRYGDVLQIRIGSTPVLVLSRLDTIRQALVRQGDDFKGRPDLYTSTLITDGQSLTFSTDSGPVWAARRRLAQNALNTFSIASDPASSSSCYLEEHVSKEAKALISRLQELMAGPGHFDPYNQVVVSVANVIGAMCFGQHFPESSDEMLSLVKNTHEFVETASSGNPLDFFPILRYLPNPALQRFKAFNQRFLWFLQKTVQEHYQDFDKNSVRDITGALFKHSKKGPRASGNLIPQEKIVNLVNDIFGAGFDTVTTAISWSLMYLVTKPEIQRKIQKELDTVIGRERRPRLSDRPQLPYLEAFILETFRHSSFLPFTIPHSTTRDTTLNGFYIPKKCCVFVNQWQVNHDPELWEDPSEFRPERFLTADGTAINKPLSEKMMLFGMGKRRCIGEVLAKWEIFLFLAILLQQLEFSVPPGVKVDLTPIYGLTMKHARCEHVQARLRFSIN
Procedure: as §1, §2, §3, §4, §5, §6

CYP 2C9 = biological target: T5, CYP 2C9 (Homo sapiens, UniProt P11712); assay: CYP (cytochrome P450)-suppressing effect, Invitrogen Vivid kit; format: in vitro ADME
T5 construct: purchased Invitrogen P2861
Procedure: as §1, §2
(§7) When the Invitrogen kit was used, the compounds of the present invention were diluted in Vivid CYP450 reaction buffer (1×) at the final concentration of 2.5×. The P450 BACULOSOMES sample and Regeneration system (100×) were diluted in Vivid CYP450 reaction buffer (1×) at different proper concentrations. 80 μL of the compound of the invention (2.5×) and […] of the diluted P450 BACULOSOMES sample mixture were mixed in a U-bottom 96-well plate, followed by pre-incubation for 10 minutes. Vivid CYP450 Substrate and NADP+ (100×) were diluted in Vivid CYP450 reaction buffer (1×) at a desired concentration, respectively, according to their corresponding types of CYP450 and substrates. 20 μL of Substrate-NADP+ mix was loaded in the plate when the pre-incubation had been completed, followed by reaction for 1 hour. Upon completion of the reaction, the reaction mixture was transferred in a white plate and fluorescent wavelength was measured with a microplate reader (2C9 excitation 415 nm, emission 460 nm, 2D6 excitation 400 nm, emission 502 nm).
as §5, §6

CYP 2D6 = biological target: T6, CYP 2D6 (Homo sapiens, UniProt P10635); assay: as above; format: in vitro ADME
T6 construct: purchased Invitrogen P2862
Procedure: as §1, §2, §7, §5, §6

[2] = system: CYP isozymes 1A2, 2C9, 2C19, and 2D6; assay: CYP suppression compared with comparative examples (Table 3); format: in vitro ADME; conditions: result in words
Procedure: as §1, §2, §7, §3, §4, §5, §6

T5 sequence (P11712 whole entry): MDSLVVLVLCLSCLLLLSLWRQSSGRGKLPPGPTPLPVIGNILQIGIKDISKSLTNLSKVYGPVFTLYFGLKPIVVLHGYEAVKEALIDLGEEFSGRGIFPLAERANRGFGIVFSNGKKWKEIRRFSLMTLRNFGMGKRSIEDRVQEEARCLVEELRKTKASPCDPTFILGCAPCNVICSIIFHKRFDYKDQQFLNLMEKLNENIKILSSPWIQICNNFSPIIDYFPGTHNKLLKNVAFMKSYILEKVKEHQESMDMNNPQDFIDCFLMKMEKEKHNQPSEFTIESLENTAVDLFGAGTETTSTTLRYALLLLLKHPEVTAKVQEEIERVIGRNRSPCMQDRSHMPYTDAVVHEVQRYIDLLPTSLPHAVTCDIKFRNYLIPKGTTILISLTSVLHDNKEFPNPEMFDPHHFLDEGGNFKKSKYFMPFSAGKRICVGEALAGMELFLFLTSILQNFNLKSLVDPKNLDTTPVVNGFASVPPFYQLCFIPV
T2 sequence (P33261 whole entry): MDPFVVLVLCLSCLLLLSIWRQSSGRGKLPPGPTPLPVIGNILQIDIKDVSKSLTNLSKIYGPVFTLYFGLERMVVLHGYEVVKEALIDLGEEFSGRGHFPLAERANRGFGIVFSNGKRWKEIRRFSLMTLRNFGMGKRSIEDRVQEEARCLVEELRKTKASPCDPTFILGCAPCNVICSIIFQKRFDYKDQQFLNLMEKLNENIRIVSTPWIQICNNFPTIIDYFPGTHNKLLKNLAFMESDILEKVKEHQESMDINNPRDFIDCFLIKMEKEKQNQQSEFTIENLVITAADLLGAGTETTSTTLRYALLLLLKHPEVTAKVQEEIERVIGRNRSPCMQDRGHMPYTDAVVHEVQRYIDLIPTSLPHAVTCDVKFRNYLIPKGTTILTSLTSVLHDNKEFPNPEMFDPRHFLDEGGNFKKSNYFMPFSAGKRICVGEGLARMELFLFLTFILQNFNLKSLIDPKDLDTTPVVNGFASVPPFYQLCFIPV
T3 sequence (P08684 whole entry): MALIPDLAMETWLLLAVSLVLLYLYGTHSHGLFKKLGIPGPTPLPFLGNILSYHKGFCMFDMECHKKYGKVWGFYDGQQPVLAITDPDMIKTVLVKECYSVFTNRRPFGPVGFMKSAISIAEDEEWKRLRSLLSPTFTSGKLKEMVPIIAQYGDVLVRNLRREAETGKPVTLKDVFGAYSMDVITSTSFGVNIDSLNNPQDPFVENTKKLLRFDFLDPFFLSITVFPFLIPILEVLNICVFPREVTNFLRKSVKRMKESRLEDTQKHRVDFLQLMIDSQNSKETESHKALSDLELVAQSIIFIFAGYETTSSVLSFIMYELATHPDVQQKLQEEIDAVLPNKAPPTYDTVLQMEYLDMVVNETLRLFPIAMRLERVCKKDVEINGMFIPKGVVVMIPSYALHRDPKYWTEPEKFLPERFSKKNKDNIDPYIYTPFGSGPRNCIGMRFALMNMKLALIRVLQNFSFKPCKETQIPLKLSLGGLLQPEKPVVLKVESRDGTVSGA
T6 sequence (P10635 whole entry): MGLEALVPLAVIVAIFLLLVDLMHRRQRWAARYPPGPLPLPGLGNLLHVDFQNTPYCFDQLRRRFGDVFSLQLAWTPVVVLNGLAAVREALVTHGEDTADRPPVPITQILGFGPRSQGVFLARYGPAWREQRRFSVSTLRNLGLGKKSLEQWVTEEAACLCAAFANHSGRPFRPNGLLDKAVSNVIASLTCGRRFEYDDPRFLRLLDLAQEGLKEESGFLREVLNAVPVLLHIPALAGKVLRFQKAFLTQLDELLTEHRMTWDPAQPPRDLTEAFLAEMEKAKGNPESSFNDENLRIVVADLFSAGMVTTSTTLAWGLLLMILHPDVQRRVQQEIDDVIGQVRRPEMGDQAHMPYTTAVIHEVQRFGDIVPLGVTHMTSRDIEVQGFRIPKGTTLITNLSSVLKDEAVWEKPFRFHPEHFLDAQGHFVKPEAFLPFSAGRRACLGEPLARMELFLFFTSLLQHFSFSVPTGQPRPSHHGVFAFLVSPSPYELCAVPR

C[C@H](NC(=O)c1ccc2c(c1)OCCN2Cc1ccc(-c2ccccc2C(N)=O)cc1)c1ccc2ccccc2c1 [Example 96, (S)-4-((2′-carbamoyl-[1,1′-biphenyl]-4-yl)methyl)-N-(1-(naphthalene-2-yl)ethyl)-3,4-dihydro-2H-benzo[b][1,4]oxazine-7-carboxamide]
Binding assay (1 μLM) [1]: +++ | CYP(10 μL, %) 2C19 (CYP 2C19): 52.35% | CYP(10 μL, %) 3A4 (CYP 3A4): 98.04% | CYP(10 μL, %) 1A2 (CYP1A2): 92.41% | CYP(10 μL, %) 2C9 (CYP 2C9): 57.63% | CYP(10 μL, %) 2D6 (CYP 2D6): 98.66% | suppression of CYP isozymes 1A2, 2C9, 2C19, and 2D6 compared with SR1664 and SR1824 [2]: less than the compounds of the comparative examples; also recorded: less strongly than the compounds of the Comparative Examples

C[C@H](NC(=O)c1ccc2c(c1)CCCN2Cc1ccc(-c2ccccc2C(=O)O)cc1F)c1ccc(C#N)cc1 [Example 110, (S)-4′-((6-((1-(4-cyanophenyl)ethyl)carbamoyl)-3,4-dihydroquinoline-1(2H)-yl)methyl)-3′-fluoro-[1,1′-biphenyl]-2-carboxylic acid]
Binding assay (1 μLM) [1]: +++ | CYP(10 μL, %) 2C19 (CYP 2C19): 69.53% | CYP(10 μL, %) 3A4 (CYP 3A4): 53.03% | CYP(10 μL, %) 1A2 (CYP1A2): 97.28% | CYP(10 μL, %) 2C9 (CYP 2C9): 55.18% | CYP(10 μL, %) 2D6 (CYP 2D6): 88.44% | suppression of CYP isozymes 1A2, 2C9, 2C19, and 2D6 compared with SR1664 and SR1824 [2]: less than the compounds of the comparative examples; also recorded: less strongly than the compounds of the Comparative Examples

C[C@H](NC(=O)c1ccc2c(c1)CCCN2Cc1ccc(-c2ccccc2C(N)=O)cc1F)c1ccc([N+](=O)[O-])cc1 [Example 113, (S)-1-((2′-carbamoyl-3-fluoro-[1,1′-biphenyl]-4-yl)methyl)-N-(1-(4-nitrophenyl)ethyl)-1,2,3,4-tetrahydroquinoline-6-carboxamide]
Binding assay (1 μLM) [1]: ++ | CYP(10 μL, %) 2C19 (CYP 2C19): 54.70% | CYP(10 μL, %) 3A4 (CYP 3A4): 85.01% | CYP(10 μL, %) 1A2 (CYP1A2): 97.27% | CYP(10 μL, %) 2C9 (CYP 2C9): 67.73% | CYP(10 μL, %) 2D6 (CYP 2D6): 78.65% | suppression of CYP isozymes 1A2, 2C9, 2C19, and 2D6 compared with SR1664 and SR1824 [2]: less than the compounds of the comparative examples; also recorded: less strongly than the compounds of the Comparative Examples

C[C@H](NC(=O)c1ccc2c(c1)CCCN2Cc1ccc(-c2ccccc2C(N)=O)cc1F)c1ccc2ccccc2c1 [Example 115, (S)-1-((2′-carbamoyl-3-fluoro-[1,1′-biphenyl]-4-yl)methyl)-N-(1-(naphthalene-2-yl)ethyl)-1,2,3,4-tetrahydroquinoline-6-carboxamide]
Binding assay (1 μLM) [1]: +++ | CYP(10 μL, %) 2C19 (CYP 2C19): 59.33% | CYP(10 μL, %) 3A4 (CYP 3A4): 77.73% | CYP(10 μL, %) 1A2 (CYP1A2): 97.62% | CYP(10 μL, %) 2C9 (CYP 2C9): 63.87% | CYP(10 μL, %) 2D6 (CYP 2D6): 95.56% | suppression of CYP isozymes 1A2, 2C9, 2C19, and 2D6 compared with SR1664 and SR1824 [2]: less than the compounds of the comparative examples; also recorded: less strongly than the compounds of the Comparative Examples

C[C@H](NC(=O)c1ccc2c(c1)CCCN2Cc1cccc(-c2ccccc2C(=O)O)c1)c1ccc(C#N)cc1 [Example 118, (S)-3′-((6-((1-(4-cyanophenyl)ethyl)carbamoyl)-3,4-dihydroquinoline-1(2H)-yl)methyl)-[1,1′-biphenyl]-2-carboxylic acid]
Binding assay (1 μLM) [1]: + | CYP(10 μL, %) 2C19 (CYP 2C19): 74.03% | CYP(10 μL, %) 3A4 (CYP 3A4): 71.21% | CYP(10 μL, %) 1A2 (CYP1A2): 101.50% | CYP(10 μL, %) 2C9 (CYP 2C9): 52.02% | CYP(10 μL, %) 2D6 (CYP 2D6): 94.83% | suppression of CYP isozymes 1A2, 2C9, 2C19, and 2D6 compared with SR1664 and SR1824 [2]: less than the compounds of the comparative examples; also recorded: less strongly than the compounds of the Comparative Examples

C[C@H](NC(=O)c1ccc2c(c1)CCCN2Cc1cccc(-c2ccccc2C(N)=O)c1)c1ccc([N+](=O)[O-])cc1 [Example 123, (S)-1-((2′-carbamoyl-[1,1′-biphenyl]-3-yl)methyl)-N-(1-(4-nitrophenyl)ethyl)-1,2,3,4-tetrahydroquinoline-6-carboxamide]
Binding assay (1 μLM) [1]: +++ | CYP(10 μL, %) 2C19 (CYP 2C19): 58.85% | CYP(10 μL, %) 3A4 (CYP 3A4): 52.65% | CYP(10 μL, %) 1A2 (CYP1A2): 102.45% | CYP(10 μL, %) 2C9 (CYP 2C9): 59.36% | CYP(10 μL, %) 2D6 (CYP 2D6): 82.48% | suppression of CYP isozymes 1A2, 2C9, 2C19, and 2D6 compared with SR1664 and SR1824 [2]: less than the compounds of the comparative examples; also recorded: less strongly than the compounds of the Comparative Examples

C[C@H](NC(=O)c1ccc2c(c1)CCCN2Cc1cccc(-c2ccccc2C(N)=O)c1F)c1ccc([N+](=O)[O-])cc1 [Example 131, (S)-1-((2′-carbamoyl-2-fluoro-[1,1′-biphenyl]-3-yl)methyl)-N-(1-(4-nitrophenyl)ethyl)-1,2,3,4-tetrahydroquinoline-6-carboxamide]
Binding assay (1 μLM) [1]: +++ | CYP(10 μL, %) 2C19 (CYP 2C19): 54.84% | CYP(10 μL, %) 3A4 (CYP 3A4): 55.88% | CYP(10 μL, %) 1A2 (CYP1A2): 94.17% | CYP(10 μL, %) 2C9 (CYP 2C9): 52.84% | CYP(10 μL, %) 2D6 (CYP 2D6): 86.92% | suppression of CYP isozymes 1A2, 2C9, 2C19, and 2D6 compared with SR1664 and SR1824 [2]: less than the compounds of the comparative examples; also recorded: less strongly than the compounds of the Comparative Examples
